Experimental data published in PubChem BioAssay (NCI).
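Exposure lasted 48 hours, with cells grown in 96-well plates and compounds tested at five concentrations. At the TGI there is no net growth.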

Experiments:
Assay in all cases: growth of human tumour cells (NCI), 48 h
UACC-257 melanoma = tested on: UACC-257 melanoma
ACHN renal = tested on: ACHN renal
A498 renal = tested on: A498 renal
UACC-62 melanoma = tested on: UACC-62 melanoma
IGROV1 ovarian = tested on: IGROV1 ovarian
HL-60(TB) leukemia = tested on: HL-60(TB) leukemia
MOLT-4 leukemia = tested on: MOLT-4 leukemia
OVCAR-5 ovarian = tested on: OVCAR-5 ovarian
DU-145 prostate = tested on: DU-145 prostate
TK-10 renal = tested on: TK-10 renal
SR leukemia = tested on: SR leukemia
NCI-H226 lung = tested on: NCI-H226 lung
SW-620 colon = tested on: SW-620 colon
COLO 205 colon = tested on: COLO 205 colon
SF-539 CNS = tested on: SF-539 CNS
SNB-19 CNS = tested on: SNB-19 CNS
SK-MEL-5 melanoma = tested on: SK-MEL-5 melanoma
HCT-15 colon = tested on: HCT-15 colon
HOP-92 NSCLC = tested on: HOP-92 NSCLC

| SMILES | TGI (UACC-257 melanoma) [µM] | TGI (ACHN renal) [µM] | TGI (A498 renal) [µM] | TGI (UACC-62 melanoma) [µM] | TGI (IGROV1 ovarian) [µM] | TGI (HL-60(TB) leukemia) [µM] | TGI (MOLT-4 leukemia) [µM] | TGI (OVCAR-5 ovarian) [µM] | TGI (DU-145 prostate) [µM] | TGI (TK-10 renal) [µM] | TGI (SR leukemia) [µM] | TGI (NCI-H226 lung) [µM] | TGI (SW-620 colon) [µM] | TGI (COLO 205 colon) [µM] | TGI (SF-539 CNS) [µM] | TGI (SNB-19 CNS) [µM] | TGI (SK-MEL-5 melanoma) [µM] | TGI (HCT-15 colon) [µM] | TGI (HOP-92 NSCLC) [µM] |
| --- | --- | --- | --- | --- | --- | --- | --- | --- | --- | --- | --- | --- | --- | --- | --- | --- | --- | --- | --- |
| c1ccc(C2=NCCN2)c(C2=NCCN2)c1 | > 100 | > 100 | > 100 | > 100 | > 100 | > 100 | > 100 | > 100 | > 100 | > 100 | > 100 | > 100 | > 100 | > 100 | > 100 | > 100 | > 100 | > 100 | > 100 |
| CC(C)(Oc1ccccc1)C(=O)Sc1c(-c2ccccc2)c(=O)n(-c2ccccc2)c(=S)n1-c1ccccc1 | > 100 | > 100 | > 100 | > 100 | 47.6 | 64.7 | > 100 | > 100 | > 100 | > 100 | 57.8 | > 100 | > 100 | > 100 | 45.4 | > 100 |  | > 100 | > 100 |
| O=C(c1c(F)c(F)c(F)c(F)c1F)N1CCN(C(=O)c2c(F)c(F)c(F)c(F)c2F)C1=S | 22 | 20.3 | 32 | 9.33 | 8.96 | > 100 | 11.4 | 29.4 | 27.2 | 27 | > 100 | 30.8 | 3.59 | 18.6 | 24 | 30.1 | 19.6 | 6.15 | 12.9 |
| CCCCCCc1ccc(C(=O)NO)cc1 | > 100 | 88.5 | 81.7 | 66.6 | > 100 | 53.8 | 50 | > 100 | 68.4 | > 100 | 39.2 | > 100 | > 100 | > 100 | > 100 | > 100 | > 100 | > 100 | > 100 |
| CSC1=Nc2ccccc2-c2nc3ccccc3cc2C1 | > 100 | > 100 | > 100 | > 100 | > 100 | > 100 | > 100 | > 100 | > 100 | > 100 | > 100 | > 100 |  | > 100 | > 100 | > 100 | > 100 | > 100 | > 100 |
| O=C1c2ccccc2CN1c1ccc(OCCN2CCCCC2)cc1 | > 10 | > 10 | > 10 | > 10 | > 10 | > 10 | > 10 | > 10 | > 10 | > 10 | > 10 | > 10 | > 10 | > 10 | > 10 | > 10 | > 10 | > 10 | > 10 |
| CCN(CC)CCC(=O)c1ccc(C)cc1 | 38.9 | 41 | 67.2 | > 100 | 37.6 | > 100 | 52.2 | 31.4 | > 100 |  | 82.6 | 63.6 | 36.9 | 63.1 | > 100 | > 100 | 25.8 | 33.6 | 36 |
| C=CCN1C(=O)/C(=C\c2cc(C(C)(C)C)c(O)c(C(C)(C)C)c2)NC1=S | 43.4 | 90.2 | 90.8 | 33.1 | > 100 | 25.1 | > 100 | > 100 | 90.3 | 73.9 | > 100 | 74.9 | > 100 | 32.4 | > 100 | > 100 | 30.1 | > 100 | > 100 |
| O=C1c2ccccc2C(=O)N1CC1S(=O)(=O)OCCOS1(=O)=O | > 100 | > 100 | > 100 | > 100 | > 100 | > 100 | > 100 | > 100 | > 100 | > 100 | > 100 | > 100 | > 100 | > 100 | > 100 | > 100 | > 100 | > 100 | > 100 |
| CCO/C=N\c1c(C#N)c(-c2ccc(Cl)cc2)cn1-c1ccc(C)cc1 | > 100 | > 100 | > 100 | > 100 | > 100 | > 100 |  | > 100 | > 100 | > 100 | > 100 | > 100 | > 100 | > 100 | > 100 | > 100 | > 100 | > 100 | > 100 |
